Converted amounts (≈) assume the structure as drawn. The source made the active and inactive calls. No cut-off for these calls is given here.
Legend:
Rattus norvegicus [1] = assay: AUC (0 to infinity) in rat assessed as 2-(2-methyl-4-oxo-3-(2-(phenylsulfonyl)benzyl)-4,5,6,7-tetrahydro-1H-pyrrolo[3,2-c]pyridin-1-yl)acetic acid at 1 mg/kg, iv; type: ADME, organism-based, Plasma; parameters: time infinity, dose 1 mg/kg, route intravenous; conditions: in vivo
Rattus norvegicus [2] = assay: AUC (0 to infinity) in rat assessed as 2-(2-methyl-4-oxo-3-(2-(phenylsulfonyl)benzyl)-4,5,6,7-tetrahydro-1H-pyrrolo[3,2-c]pyridin-1-yl)acetic acid at 10 mg/kg, po; type: ADME, organism-based, Plasma; parameters: time infinity, dose 10 mg/kg, route oral; conditions: in vivo
Rattus norvegicus [3] = assay: Oral bioavailability in rat assessed as 2-(2-methyl-4-oxo-3-(2-(phenylsulfonyl)benzyl)-4,5,6,7-tetrahydro-1H-pyrrolo[3,2-c]pyridin-1-yl)acetic acid at 10 mg/kg; type: ADME, organism-based; conditions: in vivo
Rattus norvegicus [4] = assay: Volume of distribution at steady state in rat assessed as 2-(2-methyl-4-oxo-3-(2-(phenylsulfonyl)benzyl)-4,5,6,7-tetrahydro-1H-pyrrolo[3,2-c]pyridin-1-yl)acetic acid at 1 mg/kg, iv; type: ADME, organism-based; parameters: dose 1 mg/kg, route intravenous; conditions: in vivo
Rattus norvegicus [5] = assay: Cmax in rat assessed as 2-(2-methyl-4-oxo-3-(2-(phenylsulfonyl)benzyl)-4,5,6,7-tetrahydro-1H-pyrrolo[3,2-c]pyridin-1-yl)acetic acid at 1 mg/kg, iv; type: ADME, organism-based; parameters: dose 1 mg/kg, route intravenous; conditions: in vivo
Rattus norvegicus [6] = assay: Cmax in rat assessed as 2-(2-methyl-4-oxo-3-(2-(phenylsulfonyl)benzyl)-4,5,6,7-tetrahydro-1H-pyrrolo[3,2-c]pyridin-1-yl)acetic acid at 10 mg/kg, po; type: ADME, organism-based; parameters: dose 10 mg/kg, route oral; conditions: in vivo
Rattus norvegicus [7] = assay: Terminal half life in rat assessed as 2-(2-methyl-4-oxo-3-(2-(phenylsulfonyl)benzyl)-4,5,6,7-tetrahydro-1H-pyrrolo[3,2-c]pyridin-1-yl)acetic acid at 1 mg/kg, iv; type: ADME, organism-based; parameters: dose 1 mg/kg, route intravenous; conditions: in vivo
Rattus norvegicus [8] = assay: Terminal half life in rat assessed as 2-(2-methyl-4-oxo-3-(2-(phenylsulfonyl)benzyl)-4,5,6,7-tetrahydro-1H-pyrrolo[3,2-c]pyridin-1-yl)acetic acid at 10 mg/kg, po; type: ADME, organism-based; parameters: dose 10 mg/kg, route oral; conditions: in vivo
[9] = biological target: T1, Prostaglandin D2 receptor 2 (Homo sapiens, UniProt Q9Y5Y4); assay: Antagonist activity at CRTh2 (unknown origin) stably expressed in PGD2-stimulated CHO.K1 cells preincubated for 180 mins by radio-labelled [35S]-GTPgammaS binding assay; type: functional, cell-based
T1 sequence (Q9Y5Y4 whole entry): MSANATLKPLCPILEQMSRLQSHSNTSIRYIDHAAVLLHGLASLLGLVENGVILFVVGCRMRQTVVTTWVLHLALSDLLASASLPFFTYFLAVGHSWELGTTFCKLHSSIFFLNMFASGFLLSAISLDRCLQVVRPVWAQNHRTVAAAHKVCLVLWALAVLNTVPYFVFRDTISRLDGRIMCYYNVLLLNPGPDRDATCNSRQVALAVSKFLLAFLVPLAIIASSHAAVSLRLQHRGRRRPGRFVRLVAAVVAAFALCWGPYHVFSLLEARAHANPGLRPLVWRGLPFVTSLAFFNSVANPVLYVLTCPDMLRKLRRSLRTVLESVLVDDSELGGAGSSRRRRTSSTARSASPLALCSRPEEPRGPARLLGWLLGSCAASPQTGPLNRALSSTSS

[10] = Dissociation constant, pKa of the compound by potentiometric method; type: physicochemical
[11] = Terminal half life in rat at 1 mg/kg, iv; type: ADME, organism-based; parameters: dose 1 mg/kg, route intravenous; conditions: in vivo, read-out: beta t1/2 (converted)
[12] = Cmax in rat at 1 mg/kg, iv; type: ADME, organism-based; parameters: dose 1 mg/kg, route intravenous; conditions: in vivo
Cavia porcellus = organism: Cavia porcellus; assay: Antiinflammatory activity in guinea pig eosinophilia model; type: functional, organism-based
[13] = biological target: T1, Prostaglandin D2 receptor 2; assay: Antagonist activity at CRTh2 (unknown origin) stably expressed in CHO.K1 cells co-mixing the compound and PGD2 by radio-labelled [35S]-GTPgammaS binding assay; type: functional, cell-based
[14] = biological target: T2, Prostaglandin D2 receptor 2 (Homo sapiens) (UniProt Q9Y5Y4); conditions: CHO.K1
T2 sequence (whole entry): T1 sequence (Q9Y5Y4 whole entry)
Description: Antagonist activity at CRTh2 (unknown origin) stably expressed in PGD2-stimulated CHO.K1 cells assessed as dissociation half-life at 5 to 10 times IC50 after 2 hrs by radio-labelled [35S]-GTPgammaS binding assay

[15] = Terminal half life in rat at 10 mg/kg, po; type: ADME, organism-based; parameters: dose 10 mg/kg, route oral; conditions: in vivo, read-out: beta t1/2 (converted)
[16] = Oral bioavailability in rat at 10 mg/kg; type: ADME, organism-based; conditions: in vivo
[17] = Cmax in rat at 10 mg/kg, po; type: ADME, organism-based; parameters: dose 10 mg/kg, route oral; conditions: in vivo
[18] = Apparent permeability across apical to basolateral side of human Caco2 cells at pH 7.4; type: ADME, cell-based; conditions: Caco-2, pH 7.4
[19] = Clearance in rat at 1 mg/kg, iv; type: ADME, organism-based; parameters: dose 1 mg/kg, route intravenous; conditions: in vivo
[20] = biological target: T3, Thromboxane A2 receptor (Homo sapiens) (UniProt P21731); assay: Inhibition of at prostanoid TP receptor (unknown origin) at 10 uM
T3 sequence (whole entry): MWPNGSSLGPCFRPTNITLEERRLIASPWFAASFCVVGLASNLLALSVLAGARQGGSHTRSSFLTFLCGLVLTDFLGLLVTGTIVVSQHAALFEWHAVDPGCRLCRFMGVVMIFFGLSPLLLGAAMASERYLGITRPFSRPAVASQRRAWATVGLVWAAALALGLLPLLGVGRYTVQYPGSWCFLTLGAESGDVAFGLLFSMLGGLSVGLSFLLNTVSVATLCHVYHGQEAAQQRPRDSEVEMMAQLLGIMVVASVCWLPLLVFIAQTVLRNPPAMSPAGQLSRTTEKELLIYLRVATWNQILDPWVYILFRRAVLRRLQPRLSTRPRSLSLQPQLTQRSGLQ

[21] = biological target: T1, Prostaglandin D2 receptor 2; assay: Antagonist activity at CRTh2 (unknown origin) stably expressed in PGD2-stimulated CHO.K1 cells preincubated for 120 mins by radio-labelled [35S]-GTPgammaS binding assay; type: functional, cell-based
[22] = biological target: T4, Prostaglandin D2 receptor (Homo sapiens) (UniProt Q13258); assay: Inhibition of at prostanoid DP1 receptor (unknown origin) at 10 uM
T4 sequence (whole entry): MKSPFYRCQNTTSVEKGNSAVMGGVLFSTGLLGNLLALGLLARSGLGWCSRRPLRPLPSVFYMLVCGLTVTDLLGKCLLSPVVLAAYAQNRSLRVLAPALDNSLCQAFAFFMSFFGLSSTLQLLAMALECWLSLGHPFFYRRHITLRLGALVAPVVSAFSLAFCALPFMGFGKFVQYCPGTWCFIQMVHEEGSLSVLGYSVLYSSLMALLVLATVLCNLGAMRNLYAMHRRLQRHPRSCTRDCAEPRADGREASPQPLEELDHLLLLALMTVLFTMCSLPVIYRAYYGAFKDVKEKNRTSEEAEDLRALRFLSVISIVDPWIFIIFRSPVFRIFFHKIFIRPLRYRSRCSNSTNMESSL

[23] = AUC (0 to infinity) in rat at 10 mg/kg, po; type: ADME, organism-based; parameters: time infinity, dose 10 mg/kg, route oral; conditions: plasma
[24] = biological target: T1, Prostaglandin D2 receptor 2; assay: Antagonist activity at CRTh2 (unknown origin) stably expressed in PGD2-stimulated CHO.K1 cells preincubated for 30 mins by radio-labelled [35S]-GTPgammaS binding assay; type: functional, cell-based
[25] = biological target: T1, Prostaglandin D2 receptor 2; assay: Antagonist activity at CRTh2 (unknown origin) stably expressed in PGD2-stimulated CHO.K1 cells preincubated for 60 mins by radio-labelled [35S]-GTPgammaS binding assay; type: functional, cell-based
[26] = AUC (0 to infinity) in rat at 1 mg/kg, iv; type: ADME, organism-based; parameters: time infinity, dose 1 mg/kg, route intravenous; conditions: plasma
[27] = biological target: T1, Prostaglandin D2 receptor 2; assay: Antagonist activity at CRTh2 (unknown origin) stably expressed in PGD2-stimulated CHO.K1 cells preincubated for 1 hr by radio-labelled [35S]-GTPgammaS binding assay; type: functional, cell-based
[28] = biological target: T1, Prostaglandin D2 receptor 2; assay: Antagonist activity at CRTh2 (unknown origin) stably expressed in PGD2-stimulated CHO.K1 cells preincubated for 15 mins by radio-labelled [35S]-GTPgammaS binding assay; type: functional, cell-based
[29] = Volume of distribution at steady state in rat at 1 mg/kg, iv; type: ADME, organism-based; parameters: dose 1 mg/kg, route intravenous; conditions: in vivo, read-out: Vdss
[30] = Lipophilicity, log D of the compound by shake-flask method; type: physicochemical; conditions: octanol/water
[31] = Aqueous solubility of the compound at pH 1; type: physicochemical
[32] = Aqueous solubility of the compound at pH 7.4; type: physicochemical
[33] = biological target: T1, Prostaglandin D2 receptor 2; assay: Antagonist activity at CRTh2 (unknown origin) stably expressed in CHO.K1 cells preincubated for 1 hr by radio-labelled [35S]-GTPgammaS binding assay in presence of 4% HSA; type: functional, cell-based
[34] = Apparent permeability across basolateral to apical side of human Caco2 cells at pH 7.4; type: ADME, cell-based; conditions: Caco-2, pH 7.4

| IC50 [9] | pKa [10] | IC50 [13] | T1/2 [14] | Papp A→B [18] | inhibition [20] | IC50 [21] | inhibition [22] | IC50 [24] | IC50 [25] | IC50 [27] | IC50 [28] | Structure (SMILES) | also measured |
| --- | --- | --- | --- | --- | --- | --- | --- | --- | --- | --- | --- | --- | --- |
|  |  |  |  |  |  |  |  |  |  |  |  | CCOC(=O)Cn1c(C)c(Cc2ccccc2S(=O)(=O)c2ccccc2)c2c1CCNC2=O | AUC (Rattus norvegicus [1]): 1726 ng·h/mL; AUC (Rattus norvegicus [2]): 4623 ng·h/mL; F (Rattus norvegicus [3]): 27%; Vdss (Rattus norvegicus [4]): 0.25 L/kg; Cmax (Rattus norvegicus [5]): 5370 ng/mL; Cmax (Rattus norvegicus [6]): 842 ng/mL; beta t1/2 (Rattus norvegicus [7]): 18 min; beta t1/2 (Rattus norvegicus [8]): 7.4 h |
| 2.1 nM | 3 | 7.7 nM | 10 h | 1.1 ×10⁻⁶ cm/s | < 30% | 2.9 nM | < 30% | 5.5 nM | 4.2 nM | 4 nM | 6.3 nM | Cc1c(Cc2ccccc2S(=O)(=O)c2ccccc2)c2c(n1CC(=O)O)CC(C)(C)NC2=O | half-life [11]: 48 min; Cmax [12]: 5490 ng/mL; Activity (Cavia porcellus): Active; half-life [15]: 150 min; bioavailability [16]: 1.3%; Cmax [17]: 126 ng/mL; clearance [19]: 8.4 mL/min/kg; AUC(0-inf) [23]: 275 ng·h/mL; AUC(0-inf) [26]: 2050 ng·h/mL; Vd [29]: 0.19 L/kg |
| 3 nM | 3 | 6.5 nM | 2.3 h | 0.01 ×10⁻⁶ cm/s | < 30% | 3 nM | < 30% | 4.5 nM | 4 nM | 5 nM | 4.9 nM | Cc1c(Cc2ccccc2S(=O)(=O)c2ccccc2)c2c(n1CC(=O)O)CCNC2=O | logD [30]: 0.9; solubility [31]: 500 µg/mL (≈ 1140 µM); solubility [32]: 870 µg/mL (≈ 1980 µM); IC50 [33]: 10 nM; Papp B→A [34]: 0.1 ×10⁻⁶ cm/s |

Source: ChEMBL document CHEMBL3351921, “Structure-activity relationships (SAR) and structure-kinetic relationships (SKR) of pyrrolopiperidinone acetic acids as CRTh2 antagonists” (Bioorg Med Chem Lett, 2014)
